Square brackets hold non-standard residues; d marks the D form. Peptide text beside a SMILES is read from it. * marks the point of attachment. ξ: configuration not given here. Propanoyl(3-(3-pyridyl)) = O=C(CCc1cccnc1)*; His(τ-Me) = Cn1cnc(C[C@H](N)C(=O)O)c1; Sta = CC(C)C[C@H](N)[C@@H](O)CC(=O)O; NHC(Me)(CH2OH)2 = CC(CO)(CO)N*; NHC(CH2OH)3 = OCC(CO)(CO)N*; ξ3Pal = NC(Cc1cccnc1)C(=O)O; Isovaleryl = CC(C)CC(=O)*; Nle = CCCC[C@H](N)C(=O)O; Boc = CC(C)(C)OC(=O)*; X2 = OCC1(N*)CCCCC1; X1 = CC(C)(CO)N*

The text below walks through data of patent US4840935A, “Peptide amino-alcohol derivatives containing a tetrasubstituted carbon atom, inhibiting renin and acid proteases, process for obtention and therapeutical use” (Sanofi, priority 1985, dated 1989).

The target in one assay is T1, renin (Homo sapiens, UniProt P00797).
T1 sequence (P00797 67-406): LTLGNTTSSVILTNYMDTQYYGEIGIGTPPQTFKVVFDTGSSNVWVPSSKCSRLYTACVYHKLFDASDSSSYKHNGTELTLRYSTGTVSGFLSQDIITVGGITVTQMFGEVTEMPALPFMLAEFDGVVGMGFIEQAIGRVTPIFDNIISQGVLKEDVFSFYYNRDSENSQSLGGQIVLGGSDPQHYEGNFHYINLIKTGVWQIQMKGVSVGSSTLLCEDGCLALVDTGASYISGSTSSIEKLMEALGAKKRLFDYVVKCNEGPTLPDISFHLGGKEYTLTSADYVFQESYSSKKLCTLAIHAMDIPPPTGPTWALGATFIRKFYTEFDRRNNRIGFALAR
Particulars: cited from earlier work.

Assay [1] has as its target T2, human plasma renin activity (PRA) (Homo sapiens, UniProt P00797).
T2 construct: from tissue; host or cells: human plasma pool
T2 sequence (P00797 67-406): T1 sequence (P00797 67-406)
The experiment in a line: Inhibition of human plasma renin activity (PRA), angiotensin I released measured by radioimmunoassay. It is filed as biochemical. Particulars: human plasma pool, 60 minutes at 37° C., phosphate buffer pH 7.4; IC50 evaluated in mol, expressed as -log IC50. The protocol: The products according to the invention were studied for their therapeutic properties and especially their inhibitory action on enzymes. More particularly, the compounds were evaluated "in vitro" in terms of their inhibition of human plasma renin activity (PRA).
The method of evaluation is based on that of GUYENE (J. Clin. Endocrinol. Metab., 1976, 43, 1301). The inhibition of PRA is evaluated from a human plasma pool rich in renin ([…] of angiotensin I released per milliliter per hour), incubated for 60 minutes at 37° C., in a phosphate buffer at pH 7.4, in the presence of increasing concentrations of the product to be studied.
Human plasma contains the substrate angiotensinogen and the enzyme:renin. The angiotensin I released during the reaction is measured by radioimmunoassay: Plasma Renin Activity Kit from Travenol (nos. CA 533, 553). An inhibitor of the conversion enzyme, phenylmethylsulfonyl fluoride (PMSF), is added to the incubation medium. The total incubation volume is 555 microliters made up as follows:
420 microliters of human plasma
11 to 50 microliters of the product to be studied, at variable concentrations
119 to 80 microliters of phosphate buffer 5 microliters of PMSF.
A 1N solution of acetic acid in methanol (19/1 by volume) and a 1N solution of sodium hydroxide in methanol (2/1 by volume) are prepared. In a mixture of equal volumes of these 2 solutions, a 0.001M stock solution of the product to be studied is prepared. The subsequent dilutions are then made up in the phosphate buffer.
The results are expressed as their logarithmic value (-log IC50).

In the case of `CC(C)CC(=O)N[C@H](C(=O)N[C@H](C(=O)N[C@@H](CC(C)C)[C@@H](O)CC(=O)N[C@@H](C)C(=O)N[C@@H](CC(C)C)[C@@H](O)CC(=O)O)C(C)C)C(C)C` [Pepstatin, isovaleryl-L-valyl-L-valyl-statyl-L-alanyl-statin] (Isovaleryl-VV[Sta]A[Sta]-OH), at renin, the affinity for renin entry is “low affinity for renin”. As to `CCCC[C@H](NC(=O)[C@H](Cc1ccccc1)NC(=O)OC(C)(C)C)C(=O)N[C@@H](CC(C)C)[C@@H](O)CC(=O)N[C@H](C(=O)NC(C)(CO)CO)[C@@H](C)CC` [SR 43 574] (Boc-F[Nle][Sta]I-{NHC(Me)(CH2OH)2}), the IC50 in assay [1] was 2.63 nM. The same measure, in the same setting: with `CCCC[C@H](NC(=O)[C@H](Cc1ccccc1)NC(=O)OC(C)(C)C)C(=O)N[C@@H](Cc1ccccc1)[C@@H](O)CC(=O)N[C@H](C(=O)NC(CO)(CO)CO)[C@@H](C)CC` [SR 43 576] the figure was 3.98 nM.

Take `CCCC[C@H](NC(=O)[C@H](Cc1ccccc1)NC(=O)CCc1cccnc1)C(=O)N[C@@H](Cc1ccccc1)[C@@H](O)CC(=O)N[C@H](C(=O)NC(CO)(CO)CO)[C@@H](C)CC` [SR 43 603]: the IC50 in assay [1] was 0.479 nM. `CCCC[C@H](NC(=O)[C@H](Cc1ccccc1)NC(=O)OC(C)(C)C)C(=O)N[C@@H](CC(C)C)[C@@H](O)CC(=O)N[C@H](C(=O)NC(C)(C)CO)[C@@H](C)CC` [SR 43 686] (Boc-F[Nle][Sta]I-X1): the IC50 in assay [1] is 6.03 nM. As to `CCCC[C@H](NC(=O)[C@H](Cc1ccccc1)NC(=O)CCc1cccnc1)C(=O)N[C@@H](CC(C)C)[C@@H](O)CC(=O)N[C@H](C(=O)NC(C)(CO)CO)[C@@H](C)CC` [SR 43 707] ({Propanoyl(3-(3-pyridyl))}-F[Nle][Sta]I-{NHC(Me)(CH2OH)2}), the half-maximal inhibitory concentration (IC50) in assay [1] was 3.55 nM.

With `CCCC[C@H](NC(=O)[C@H](Cc1ccccc1)NC(=O)OC(C)(C)C)C(=O)N[C@@H](CC1CCCCC1)[C@@H](O)CC(=O)N[C@H](C(=O)NC(C)(CO)CO)[C@@H](C)CC` [SR 43 721], the IC50 in assay [1] is 7.76 nM. As for `CC[C@H](C)[C@H](NC(=O)C[C@H](O)[C@H](CC(C)C)NC(=O)[C@H](Cc1c[nH]cn1)NC(=O)[C@H](Cc1ccccc1)NC(=O)CCc1cccnc1)C(=O)NC(C)(CO)CO` [SR 43 737] ({Propanoyl(3-(3-pyridyl))}-FH[Sta]I-{NHC(Me)(CH2OH)2}), in assay [1], the IC50 was 2.14 nM. On to `CC[C@H](C)[C@H](NC(=O)C[C@H](O)[C@H](CC(C)C)NC(=O)C(Cc1cccnc1)NC(=O)[C@H](Cc1ccccc1)NC(=O)OC(C)(C)C)C(=O)NC(C)(CO)CO` (some centres unmarked) [SR 43 763] (Boc-F[ξ3Pal][Sta]I-{NHC(Me)(CH2OH)2}), for which, in assay [1], the IC50 was 77.6 nM. For the molecule `CCCC[C@H](NC(=O)[C@H](Cc1ccccc1)NC(=O)OC(C)(C)C)C(=O)N[C@@H](CC(C)C)[C@@H](O)CC(=O)N[C@H](C(=O)NC1(CO)CCCCC1)[C@@H](C)CC` [SR 43 799] (Boc-F[Nle][Sta]I-X2), in assay [1], the IC50 was 5.5 nM. Take `CCCC[C@H](NC(=O)[C@H](Cc1ccccc1)NC(=O)OC(C)(C)C)C(=O)N[C@@H](CC(C)C)[C@@H](O)CC(=O)N[C@@H](C)C(=O)NC(C)(C)CO` [SR 43 860] (Boc-F[Nle][Sta]A-X1): the IC50 in assay [1] was 33.1 nM. Turning to `CC[C@H](C)[C@H](NC(=O)C[C@H](O)[C@H](CC(C)C)NC(=O)[C@H](Cc1cn(C)cn1)NC(=O)[C@H](Cc1ccccc1)NC(=O)CCc1cccnc1)C(=O)NC(C)(C)CO` [SR 43 966] ({Propanoyl(3-(3-pyridyl))}-F[His(τ-Me)][Sta]I-X1), in assay [1], the IC50 is 19.1 nM. In the case of `CCCC[C@H](NC(=O)[C@H](Cc1ccccc1)NC(=O)OC(C)(C)C)C(=O)N[C@@H](CC(C)C)[C@@H](O)CC(=O)N[C@H](C(=O)NC(CO)(CO)CO)[C@@H](C)CC` [SR 44 094] (Boc-F[Nle][Sta]I-{NHC(CH2OH)3}), the IC50 in assay [1] was 18.2 nM. Same read-out and setting: with `CC[C@H](C)[C@H](NC(=O)C[C@H](O)[C@H](CC1CCCCC1)NC(=O)[C@H](Cc1nc2ccccc2[nH]1)NC(=O)[C@H](Cc1ccccc1)NC(=O)OC(C)(C)C)C(=O)NC(C)(CO)CO` [SR 44 125] the figure was 36.3 nM.
